The experiment addresses T1, human normal β-galactosidase (GP8) (Homo sapiens, UniProt P16278).
T1 sequence (P16278 29-677): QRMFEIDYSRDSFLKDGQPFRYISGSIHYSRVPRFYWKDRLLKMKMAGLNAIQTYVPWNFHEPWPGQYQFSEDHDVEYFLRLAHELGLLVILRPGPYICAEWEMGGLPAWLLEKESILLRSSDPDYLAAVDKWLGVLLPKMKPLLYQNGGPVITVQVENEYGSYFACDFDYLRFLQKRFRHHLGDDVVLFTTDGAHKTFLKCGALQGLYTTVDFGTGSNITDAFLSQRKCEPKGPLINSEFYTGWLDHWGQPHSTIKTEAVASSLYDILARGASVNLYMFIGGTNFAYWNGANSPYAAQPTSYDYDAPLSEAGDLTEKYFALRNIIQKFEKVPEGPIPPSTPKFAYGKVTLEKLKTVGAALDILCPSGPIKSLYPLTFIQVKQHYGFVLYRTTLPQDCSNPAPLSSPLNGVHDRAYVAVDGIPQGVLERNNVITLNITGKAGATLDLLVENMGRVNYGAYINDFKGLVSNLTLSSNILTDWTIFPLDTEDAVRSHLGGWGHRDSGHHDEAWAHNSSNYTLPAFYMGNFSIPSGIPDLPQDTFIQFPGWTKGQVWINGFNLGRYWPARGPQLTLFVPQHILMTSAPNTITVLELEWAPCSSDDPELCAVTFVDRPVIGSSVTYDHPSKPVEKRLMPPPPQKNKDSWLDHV
The experiment can be described thus: Galactosidase inhibitory activity, enzyme from culture supernatant, 4-methylumbelliferyl-β-D-galactopyranoside substrate. Type of experiment: biochemical. Details: made in house; host or cells: SV40-immortalized β-galactosidase knockout mouse skin fibroblasts; Enzyme source was the supernatant after 24 h in NH4Cl medium, dialyzed and concentrated. Particulars: 30 minutes. As to the method: Knockout mouse skin fibroblast introduced with a human normal β-galactosidase (GP8) cDNA (Biochem. Biophys. Res. Commun., 157(1), 238-244, 1988) and immortalized with an SV40 viral gene were cultured at 37° C. in an atmosphere of 5% CO2, using Dulbecco's modified Eagle's medium (to be referred to as “DMEM” hereinafter: manufactured by Gibco) containing 10% fetal calf serum (to be referred to as “FCS” hereinafter), and when the cells became 80% confluent, the medium was exchanged with FCS-free DMEM containing 10 mM of NH4Cl. After culturing for 24 hours, the supernatant was recovered and dialyzed against 10 mM phosphate buffer (pH=6.5) for 4 hours. Thereafter, the mixture was concentrated using VIVAPORE-20 (manufactured by Vivapore) and used as the enzyme source. Using 4-methylumbelliferyl-β-D-galactopyranoside as the fluorescent substrate, the enzyme activity during 30 minutes was measured in the presence or absence of the substance to be tested (Table 1). Final concentration of the substance 18 of the present invention was adjusted to 0.05, 0.125, 0.25, 0.5, 1, 2.5 or 5 μM.

Molecules are shown by their SMILES.

Consider `CCCCCCCCN[C@@H]1C=C(CO)[C@H](O)C(O)[C@@H]1O` (stereo partly drawn) [Substance 18, N-octyl-5a-carba-α-L-arabino-hexo-5(5a)-enopyranosylamine], for which, where the note is “0.050 umol/L substance”, the activity at 0.05 µM came to 77%. The compound also returned an activity at 0.125 µM (0.125 umol/L substance) of 59.5%. Further, where the note is “0.250 umol/L substance”, the activity at 0.25 µM turned out to be 43.4%. For the setting “0.500 umol/L substance”, the activity at 0.5 µM amounted to 35.7%. The activity at 1 µM (1.000 umol/L substance) worked out at 36%. The compound also registered an activity at 2.5 µM (2.500 umol/L substance) of 18.7%. The activity at 5 µM (5.000 umol/L substance) was found to be 14.4%.

Source of the values: US8211945B2, “Carba-sugar amine derivative and glycolipid metabolic disorder treating agent containing the same as active ingredient” (Seikagaku Corporation, priority 2001, dated 2012).
